Assay results from ChEMBL document CHEMBL5727827, “PD-1/PD-L1 inhibitors” (2020).

Biological target: Programmed cell death protein 1/Programmed cell death 1 ligand 1 (Homo sapiens, UniProt Q15116+Q9NZQ7)
Assay: Binding of the protein pairs is measured using a bead based Amplified Luminescent Proximity Homogeneous Assay (ALPHA) platform. Binding of each protein pair results in proximity of the donor and acceptor beads which leads to an increase in ALPHA signal. […] Assays are performed in 25 mM Hepes (pH 7.4), 150 mM NaCl, 3.4 mM EDTA, 0.005% Tween 20, and 0.01% BSA. […] After an assay reaction time of 60 minutes at 25° C., binding was measured with addition of 20 μg/mL ALPHA assay acceptor beads (anti-His coated) and 20 µg/mL ALPHA assay donor beads (streptavidin coated). IC50 values were calculated from the fit of the dose-response curves to a four-parameter equation.
Type: protein-complex assay

Programmed cell death protein 1/Programmed cell death 1 ligand 1, sequence (Q15116 whole entry): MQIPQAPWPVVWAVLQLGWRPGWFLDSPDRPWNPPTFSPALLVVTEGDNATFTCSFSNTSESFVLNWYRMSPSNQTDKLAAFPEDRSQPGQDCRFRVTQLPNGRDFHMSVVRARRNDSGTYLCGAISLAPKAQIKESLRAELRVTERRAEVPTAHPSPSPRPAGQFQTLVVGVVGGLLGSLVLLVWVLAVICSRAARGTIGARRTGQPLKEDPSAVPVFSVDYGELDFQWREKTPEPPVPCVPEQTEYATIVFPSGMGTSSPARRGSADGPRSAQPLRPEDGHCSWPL
Programmed cell death protein 1/Programmed cell death 1 ligand 1, sequence (Q9NZQ7 whole entry): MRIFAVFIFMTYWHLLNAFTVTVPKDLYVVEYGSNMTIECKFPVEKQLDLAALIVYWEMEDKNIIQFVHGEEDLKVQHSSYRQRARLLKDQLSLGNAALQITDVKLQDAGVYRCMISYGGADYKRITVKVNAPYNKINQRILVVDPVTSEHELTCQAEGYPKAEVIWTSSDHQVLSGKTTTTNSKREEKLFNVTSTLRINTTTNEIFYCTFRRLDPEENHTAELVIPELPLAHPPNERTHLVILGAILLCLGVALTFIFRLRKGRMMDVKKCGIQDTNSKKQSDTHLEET

**Q.** Which IC50 does the source give for COc1nc(-c2cccc(-c3cccc(-c4cnc(CN5CC(C(C)(C)O)C5)c(OC)n4)c3Cl)c2Cl)cnc1CN here?
**A.** 346 pM
